Active and inactive are the calls of the source. The calls are words filed in the database; no cut-off is given here.
Key:
[1] = Antioxidant activity of compound at 150 to 1000 uM by DPPH assay; type: functional; details: dose 150-1000 µM
[2] = molecular target: T1, NAD-dependent protein deacetylase sirtuin-2 (Homo sapiens) (UniProt Q8IXJ6); experiment: Inhibition of SIRT2 (unknown origin) at 50 uM relative to control
T1 sequence (whole entry): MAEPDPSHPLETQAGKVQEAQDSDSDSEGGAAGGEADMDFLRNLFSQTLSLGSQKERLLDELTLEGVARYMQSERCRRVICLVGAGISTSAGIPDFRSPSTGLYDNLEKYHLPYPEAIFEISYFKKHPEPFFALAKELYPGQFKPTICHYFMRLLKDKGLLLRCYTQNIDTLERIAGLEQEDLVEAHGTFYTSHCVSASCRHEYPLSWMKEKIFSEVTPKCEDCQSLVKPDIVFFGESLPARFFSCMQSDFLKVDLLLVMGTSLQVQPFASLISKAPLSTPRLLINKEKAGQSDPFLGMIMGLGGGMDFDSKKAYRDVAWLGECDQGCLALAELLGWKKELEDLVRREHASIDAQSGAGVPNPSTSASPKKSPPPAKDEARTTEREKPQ

[3] = molecular target: T2, NAD-dependent protein deacetylase sirtuin-1 (Homo sapiens) (UniProt Q96EB6); experiment: Activation of SIRT1 (unknown origin) at 50 uM relative to control
T2 sequence (whole entry): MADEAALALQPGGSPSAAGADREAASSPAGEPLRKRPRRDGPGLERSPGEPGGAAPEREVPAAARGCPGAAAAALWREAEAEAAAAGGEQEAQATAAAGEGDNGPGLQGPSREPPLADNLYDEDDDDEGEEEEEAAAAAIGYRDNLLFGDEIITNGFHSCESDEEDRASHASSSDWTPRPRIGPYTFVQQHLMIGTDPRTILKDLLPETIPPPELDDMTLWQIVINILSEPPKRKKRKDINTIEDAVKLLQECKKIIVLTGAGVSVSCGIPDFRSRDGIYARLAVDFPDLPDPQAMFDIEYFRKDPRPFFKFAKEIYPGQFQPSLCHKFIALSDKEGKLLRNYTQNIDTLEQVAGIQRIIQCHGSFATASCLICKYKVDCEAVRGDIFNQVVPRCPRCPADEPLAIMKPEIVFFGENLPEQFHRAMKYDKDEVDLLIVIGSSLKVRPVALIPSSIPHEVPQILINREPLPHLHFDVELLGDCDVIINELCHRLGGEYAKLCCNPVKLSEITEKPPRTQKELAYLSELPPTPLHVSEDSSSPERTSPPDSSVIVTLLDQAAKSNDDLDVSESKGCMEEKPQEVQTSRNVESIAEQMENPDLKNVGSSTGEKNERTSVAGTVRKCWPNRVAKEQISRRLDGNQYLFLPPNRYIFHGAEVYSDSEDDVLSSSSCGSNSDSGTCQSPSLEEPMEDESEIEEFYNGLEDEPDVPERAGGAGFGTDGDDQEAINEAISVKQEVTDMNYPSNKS

[4] = molecular target: T3, NAD-dependent protein deacetylase sirtuin-2 (Homo sapiens, UniProt Q8IXJ6); experiment: Inhibition of SIRT2 (unknown origin)
T3 sequence (Q8IXJ6 whole entry): T1 sequence (whole entry)

[5] = molecular target: T4, NAD-dependent protein deacetylase sirtuin-1 (Homo sapiens, UniProt Q96EB6); experiment: Activation of N-terminal His-tagged recombinant human SIRT1 (193 to end residues) expressed in baculovirus infected Sf9 insect cells incubated for 15 to 45 mins by luminescence based assay
T4 sequence (Q96EB6 whole entry): T2 sequence (whole entry)

[6] = Antioxidant activity of compound at 500 uM by DPPH assay relative to control; type: functional
[7] = molecular target: T4, NAD-dependent protein deacetylase sirtuin-1; experiment: Inhibition of AMC-conjugated recombinant human SIRT1 (379 to 382 residues) using […] substrate incubated for 45 mins by fluorescence based assay
[8] = molecular target: T5, NAD-dependent protein deacetylase sirtuin-3, mitochondrial (Homo sapiens, UniProt Q9NTG7); experiment: Inhibition of AMC-conjugated recombinant human SIRT3 ( 317 to 320 residues) using […] substrate incubated for 45 mins by fluorescence based assay
T5 sequence (Q9NTG7 whole entry): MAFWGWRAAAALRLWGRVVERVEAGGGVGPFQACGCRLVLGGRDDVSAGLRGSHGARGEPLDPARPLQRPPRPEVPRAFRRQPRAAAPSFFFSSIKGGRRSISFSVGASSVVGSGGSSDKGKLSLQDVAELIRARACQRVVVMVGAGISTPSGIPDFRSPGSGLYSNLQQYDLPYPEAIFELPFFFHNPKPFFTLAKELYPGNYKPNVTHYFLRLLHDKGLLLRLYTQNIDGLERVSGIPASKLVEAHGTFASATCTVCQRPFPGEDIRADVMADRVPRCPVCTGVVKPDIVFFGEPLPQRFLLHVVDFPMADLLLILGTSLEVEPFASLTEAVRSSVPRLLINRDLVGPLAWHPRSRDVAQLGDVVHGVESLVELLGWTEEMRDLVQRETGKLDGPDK

Compound: COc1ccccc1N1CCN(Cc2ccc3oc4c(Cl)cccc4c(=O)c3c2)CC1
- Activity [1]: inactive
- inhibition [2]: 49.5%
- Activity [3]: -17.1%

Compound: COc1ccccc1CNCc1ccc2oc3c(Cl)cccc3c(=O)c2c1
- Activity [1]: inactive
- inhibition [2]: 82.1%
- Activity [3]: -10.3%

Compound: Oc1ccc(/C=C/c2cc(O)cc(O)c2)cc1
- inhibition [2]: 83%
- Activity ([3]; filed as activator): 96.6%

Compound: Cc1ccc(C(=O)Nc2ccc(S(=O)(=O)O)c3cc(S(=O)(=O)O)cc(S(=O)(=O)O)c23)cc1NC(=O)c1cccc(NC(=O)Nc2cccc(C(=O)Nc3cc(C(=O)Nc4ccc(S(=O)(=O)O)c5cc(S(=O)(=O)O)cc(S(=O)(=O)O)c45)ccc3C)c2)c1 [SURAMIN]
- IC50 [4]: 24 µM

Compound: COc1ccccc1CCNCc1ccc2oc3c(Cl)cccc3c(=O)c2c1
- Activity [1]: inactive
- inhibition [2]: 93.2%
- Activity [3]: -22.1%

Compound: CC(C)=CCc1c(O)c(CC=C(C)C)c2oc3c(O)ccc(O)c3c(=O)c2c1O [GARTANIN]
- EC50 [5]: 1790 nM

Compound: COc1cccc(N2CCN(Cc3ccc4oc5c(Cl)cccc5c(=O)c4c3)CC2)c1
- Activity [1]: inactive
- Activity [6]: 17.9%
- inhibition [2]: 48.5%
- Activity [3]: -117%

Compound: COc1ccc(CNCc2ccc3oc4c(Cl)cccc4c(=O)c3c2)cc1OC
- Activity [1]: inactive
- inhibition [2]: 82.7%
- Activity [3]: -19.5%

Compound: CC(C)=CCc1c(O)cc2oc3cc(O)c(O)c(CC=C(C)C)c3c(=O)c2c1O
- IC50 [7]: 22.4 µM
- IC50 [8]: 26.8 µM

Compound: COc1ccc(OC)c(CN2CCN(Cc3ccc4oc5c(Cl)cccc5c(=O)c4c3)CC2)c1
- inhibition [2]: 55.9%
- Activity [3]: -12.4%
